# Laboratory results taken from article PMC11089504 (Journal of medicinal chemistry, 2024).
# “And” between values parts separate entries of the source, which are not always exact repeats. Equal values may be shown once.
# Tests used:
# T. cruzi CYP51 = settings: 2-fold molar excess over the enzyme ref 61; cited from earlier work
# human CYP51 = settings: cited from earlier work
# A. castellanii CYP51 [1] = target: T1, A. castellanii CYP51 (Acanthamoeba castellanii, UniProt L8GJB3, V2A); settings: full-length enzyme, type I spectral response
# T1 sequence (L8GJB3 1-486 V2A): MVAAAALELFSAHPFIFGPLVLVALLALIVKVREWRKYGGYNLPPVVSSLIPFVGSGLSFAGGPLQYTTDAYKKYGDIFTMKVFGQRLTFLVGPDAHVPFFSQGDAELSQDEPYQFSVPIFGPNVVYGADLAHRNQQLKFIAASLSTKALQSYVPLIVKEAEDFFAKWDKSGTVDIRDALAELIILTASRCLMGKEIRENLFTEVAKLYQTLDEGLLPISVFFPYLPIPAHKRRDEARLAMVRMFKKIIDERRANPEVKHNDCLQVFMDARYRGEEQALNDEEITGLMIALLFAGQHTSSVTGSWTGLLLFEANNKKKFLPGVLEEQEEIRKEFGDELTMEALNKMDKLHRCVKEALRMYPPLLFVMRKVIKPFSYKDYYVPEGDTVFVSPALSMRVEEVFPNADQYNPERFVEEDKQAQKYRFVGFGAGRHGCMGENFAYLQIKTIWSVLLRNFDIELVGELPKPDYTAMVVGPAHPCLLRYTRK
# T1 sequence (P00388 2-678 partner): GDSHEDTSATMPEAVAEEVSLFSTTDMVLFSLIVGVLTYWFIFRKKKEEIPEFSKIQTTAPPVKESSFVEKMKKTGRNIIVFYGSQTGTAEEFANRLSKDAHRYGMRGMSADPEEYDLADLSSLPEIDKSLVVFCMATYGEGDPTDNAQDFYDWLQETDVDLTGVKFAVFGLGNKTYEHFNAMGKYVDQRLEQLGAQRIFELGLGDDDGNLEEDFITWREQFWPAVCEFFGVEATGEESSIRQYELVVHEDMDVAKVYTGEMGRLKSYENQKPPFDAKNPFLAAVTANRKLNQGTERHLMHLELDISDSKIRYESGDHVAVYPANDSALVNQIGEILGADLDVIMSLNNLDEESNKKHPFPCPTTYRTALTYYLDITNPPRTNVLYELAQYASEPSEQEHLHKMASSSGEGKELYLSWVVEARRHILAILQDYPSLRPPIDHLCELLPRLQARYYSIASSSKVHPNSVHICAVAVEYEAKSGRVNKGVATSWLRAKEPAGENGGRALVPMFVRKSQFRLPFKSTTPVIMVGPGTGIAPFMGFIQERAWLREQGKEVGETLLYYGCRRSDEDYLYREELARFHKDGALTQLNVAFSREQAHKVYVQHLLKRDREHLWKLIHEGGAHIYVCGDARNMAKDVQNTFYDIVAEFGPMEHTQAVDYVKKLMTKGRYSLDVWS
# A. castellanii CYP51 [2] = target: T1, A. castellanii CYP51; settings: obtusifoliol over lanosterol
Compound,inhibition of T. cruzi CYP51 (T. cruzi CYP51),binding to human CYP51 (human CYP51),low- to high-spin transition in the heme iron (A. castellanii CYP51 [1]),fold higher catalytic efficiency than for lanosterol (substrate preference) (A. castellanii CYP51 [2])
"O[C@@](Cn1cnnn1)(c1ccc(F)cc1F)C(F)(F)c1ccc(-c2ccc(OCC(F)(F)F)cc2)cn1 [VT1161, (R)-2-(2,4-difluorophenyl)-1,1-difluoro-3-(lH-tetrazol-1-yl)-1-(5-(4-(2,2,2-trifluoroethoxy)phenyl)pyridin-2-yl)propan-2-ol]",~ 95%,does not bind,–,–
CC(C)=CCC[C@@H](C)[C@H]1CC[C@@]2(C)C3=C(CC[C@]12C)[C@@]1(C)CC[C@H](O)C(C)(C)[C@@H]1CC3 [lanosterol],–,–,~15%,–
C=C(CC[C@@H](C)[C@H]1CC[C@@]2(C)C3=C(CC[C@]12C)[C@@]1(C)CC[C@H](O)[C@@H](C)[C@@H]1CC3)C(C)C [obtusifoliol],–,–,~ 60%,~ 100 fold and 100 fold
